# According to the supplement of paper PMC10307832:
# Assays:
# Test in all cases: relative viability (nuclei count vs DMSO), 5 days (fraction); higher = more cells survive
# DM3189 + Bortezomib = compound: C1CN(CCN1)C2=CC=C(C=C2)C3=CN4C(=C(C=N4)C5=CC=NC6=CC=CC=C56)N=C3 [DM3189] + CC(C)C[C@H](NC(=O)[C@H](Cc1ccccc1)NC(=O)c1cnccn1)B(O)O [Bortezomib] (partner 0.002 µM)
# Method in brief: (§1)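 Relative viability equals treated-well nuclei counts divided by vehicle-well nuclei counts. Counts came from 4× images of lung cancer cell lines grown in 1536-well plates for 5 days after pin-tool dosing on the day after seeding. Dosing used one drug alone or a fixed anchor-drug dose plus five library-drug doses (not always all listed) in √10 steps, and values are medians of duplicate plates.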
# DM3189 + Luminespib = compound: C1CN(CCN1)C2=CC=C(C=C2)C3=CN4C(=C(C=N4)C5=CC=NC6=CC=CC=C56)N=C3 [DM3189] + CCNC(=O)c1noc(-c2cc(C(C)C)c(O)cc2O)c1-c1ccc(CN2CCOCC2)cc1 [Luminespib] (partner 0.01 µM)
# Method in brief: as §1
# DM3189 + Foretinib = compound: C1CN(CCN1)C2=CC=C(C=C2)C3=CN4C(=C(C=N4)C5=CC=NC6=CC=CC=C56)N=C3 [DM3189] + COc1cc2c(Oc3ccc(NC(=O)C4(C(=O)Nc5ccc(F)cc5)CC4)cc3F)ccnc2cc1OCCCN1CCOCC1 [Foretinib] (partner 0.25 µM)
# Method in brief: as §1
# DM3189 + Tozasertib = compound: C1CN(CCN1)C2=CC=C(C=C2)C3=CN4C(=C(C=N4)C5=CC=NC6=CC=CC=C56)N=C3 [DM3189] + Cc1cc(Nc2cc(N3CCN(C)CC3)nc(Sc3ccc(NC(=O)C4CC4)cc3)n2)n[nH]1 [Tozasertib] (partner 0.1 µM)
# Method in brief: as §1
# DM3189 + Vorinostat = compound: C1CN(CCN1)C2=CC=C(C=C2)C3=CN4C(=C(C=N4)C5=CC=NC6=CC=CC=C56)N=C3 [DM3189] + O=C(CCCCCCC(=O)Nc1ccccc1)NO [Vorinostat] (partner 1 µM)
# Method in brief: as §1
Cell Line,relative viability (DM3189 + Bortezomib; first compound 0.08 µM),relative viability (DM3189 + Bortezomib; first compound 0.253 µM),relative viability (DM3189 + Bortezomib; first compound 2.53 µM),relative viability (DM3189 + Luminespib; first compound 0.08 µM),relative viability (DM3189 + Luminespib; first compound 0.253 µM),relative viability (DM3189 + Luminespib; first compound 2.53 µM),relative viability (DM3189 + Foretinib; first compound 0.08 µM),relative viability (DM3189 + Foretinib; first compound 0.253 µM),relative viability (DM3189 + Foretinib; first compound 2.53 µM),relative viability (DM3189 + Tozasertib; first compound 0.08 µM),relative viability (DM3189 + Tozasertib; first compound 0.253 µM),relative viability (DM3189 + Tozasertib; first compound 2.53 µM),relative viability (DM3189 + Vorinostat; first compound 0.08 µM),relative viability (DM3189 + Vorinostat; first compound 0.253 µM),relative viability (DM3189 + Vorinostat; first compound 2.53 µM),relative viability (DM3189 + Luminespib; first compound 0.8 µM),relative viability (DM3189 + Foretinib; first compound 0.8 µM),relative viability (DM3189 + Tozasertib; first compound 0.8 µM),relative viability (DM3189 + Vorinostat; first compound 0.8 µM),relative viability (DM3189 + Bortezomib; first compound 0.8 µM)
LU99A,1.23,1.01,1.04,0.229,0.19,0.23,0.82,0.731,0.661,0.284,0.242,0.307,0.492,0.434,0.458,–,–,–,–,–
NCI-H358,–,–,–,0.463,0.218,0.257,0.733,0.607,0.61,0.12,0.0936,0.11,0.746,0.585,0.595,0.251,0.714,0.102,0.628,–
NCI-H522,–,–,–,1.31,0.984,1.16,–,–,–,0.602,0.582,0.494,1.1,0.832,0.988,1.27,–,0.552,0.855,–
NCI-H1395,–,–,–,0.662,0.589,0.646,0.896,0.929,1.03,0.69,0.689,0.799,1.08,0.616,0.731,0.492,0.831,0.697,–,–
NCI-H1703,0.365,0.292,0.298,–,–,–,0.37,0.443,0.263,–,–,–,–,–,–,–,0.395,–,–,0.326
NCI-H1792,0.838,0.926,0.656,0.416,0.552,0.328,–,–,–,–,–,–,–,–,–,0.445,–,–,–,0.852
NCI-H1793,–,–,–,0.184,0.196,0.174,0.768,0.847,0.783,0.33,0.321,0.357,0.993,0.633,1.12,0.171,0.905,0.294,0.911,–
NCI-H1944,–,–,–,0.813,0.673,0.684,0.93,0.81,0.88,0.275,0.273,0.267,0.592,0.567,0.565,–,–,–,0.467,–
NCI-H2170,–,–,–,0.939,0.836,0.764,0.985,1.01,1.16,0.84,0.651,0.71,0.921,0.811,0.658,0.762,0.883,0.525,0.725,–
SK-MES-1,–,–,–,0.848,0.82,0.412,0.849,0.701,0.76,0.901,0.831,0.87,1.34,1.01,0.875,0.611,0.698,0.687,0.787,–
SW 900,–,–,–,0.174,0.166,0.196,0.996,0.875,0.728,0.604,0.509,0.437,0.469,–,0.383,0.156,0.794,0.446,0.442,–
